Experimental data: patent publication US10894807B2 (Siemens Medical Solutions USA, Inc., priority 2011, dated 2021)
Where a SMILES comes first, the peptide text is derived from it. [ ]: non-standard residue; d: D form. The star is where a group is joined. Boc = CC(C)(C)OC(=O)*; Nlys = NCCCCNCC(=O)O

Target: human PSMA (Homo sapiens (Human), UniProt Q04609)
Assay: Enzymatic assay for in vitro evaluation of PSMA inhibitors (fluorescent assay of PSMA activity, NAAG substrate, OPA detection of glutamate)
Type: biochemical
Conditions: for PSMA Blkg % (10 μM): compound at 10 μM
Procedure: Enzymatic Assay for In Vitro Evaluation of PSMA Inhibitors
The inhibitory activity of all compounds was determined using a fluorescent assay of human PSMA activity. The enzyme used in the assay was purchased from R&D Systems and stored at −80° C. The PSMA activity was assayed in a two-step process. In the first step, aliquots of enzyme (0.2 μg/mL) were incubated for 1 h at 37° C. in 50 mM HEPES, 0.1 M NaCl, pH 7.5, in the presence of 20 μM NAAG and the given inhibitor, in a volume of 250 μL, to allow for the accumulation of glutamate produced in the PSMA reaction. In the second step, the amount of accumulated glutamate was measured using the OPA reaction, and the fluorescence was read with a SpectraMax fluorescent plate reader using excitation at 330 nm and emission at 450 nm. The final Ki values for each inhibitor were calculated from the respective IC50 values using the Cheng and Prusoff equation.

Sequence of human PSMA (Q04609 whole entry): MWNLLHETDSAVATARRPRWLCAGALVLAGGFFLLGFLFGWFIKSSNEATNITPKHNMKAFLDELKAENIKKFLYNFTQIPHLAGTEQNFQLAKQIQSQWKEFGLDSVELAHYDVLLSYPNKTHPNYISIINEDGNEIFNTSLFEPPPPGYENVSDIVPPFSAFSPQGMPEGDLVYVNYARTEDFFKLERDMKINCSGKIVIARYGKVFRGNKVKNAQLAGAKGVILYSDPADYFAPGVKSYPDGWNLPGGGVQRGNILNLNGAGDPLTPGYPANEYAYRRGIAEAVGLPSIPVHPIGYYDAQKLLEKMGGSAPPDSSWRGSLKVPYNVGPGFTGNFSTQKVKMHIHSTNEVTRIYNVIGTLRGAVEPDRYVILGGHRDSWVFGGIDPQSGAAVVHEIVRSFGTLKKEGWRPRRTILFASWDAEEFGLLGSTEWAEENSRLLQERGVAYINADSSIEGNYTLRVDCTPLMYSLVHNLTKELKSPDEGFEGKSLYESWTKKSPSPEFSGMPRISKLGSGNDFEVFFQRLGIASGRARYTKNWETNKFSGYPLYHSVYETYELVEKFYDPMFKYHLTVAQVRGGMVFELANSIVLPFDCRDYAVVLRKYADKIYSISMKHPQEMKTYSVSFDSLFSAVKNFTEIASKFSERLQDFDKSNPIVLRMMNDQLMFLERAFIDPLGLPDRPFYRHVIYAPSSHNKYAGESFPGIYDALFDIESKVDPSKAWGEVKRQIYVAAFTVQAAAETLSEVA

Row | SMILES | Ki [nM] | PSMA Blkg % (10 μM) [%]
1 | O=C(O)CC[C@H](NC(=O)N[C@@H](CCCCNC(=O)OCc1ccccc1)C(=O)O)C(=O)O [P033, (9S,13S)-3,11-Dioxo-1-phenyl-2-oxa-4,10,12-triazapentadecane-9,13,15-tricarboxylic Acid] | 0.78 | 89
2 | CN(C(=O)N[C@@H](CCC(=O)O)C(=O)O)[C@@H](CCCCNC(=O)CN=[N+]=[N-])C(=O)O [P034, (S)-2-(3-((S)-5-(2-Azidoacetamido)-1-carboxypentyl)-3-methylureido)pentanedioic Acid] |  | 70
3 | CCN(C(=O)N[C@@H](CCC(=O)O)C(=O)O)[C@@H](CCCCNC(=O)OCc1ccccc1)C(=O)O [P035, (9S, 13S)-10-Ethyl-3,11-dioxo-1-phenyl-2-oxa-4,10,12-triazapentadecane-9,13,15-tricarboxylic Acid] |  | 0
4 | COc1ccc(-c2cn(CC(=O)NCCCC[C@@H](C(=O)O)N(C)C(=O)N[C@@H](CCC(=O)O)C(=O)O)nn2)cc1 [P036, (S)-2-(3-((S)-1-Carboxy-5-(2-(4-(4-methoxyphenyl)-1H-1,2,3-triazol-1-yl)acetamido)-pentyl)3-methylureido)pentanedioic Acid] |  | 68
5 | O=C(O)CC[C@H](Nc1nc(C(=O)O)co1)C(=O)O [P037, (S)-2-((4-Carboxyoxazol-2-yl)amino)pentanedioic Acid] |  | 12
6 | O=C(O)CC[C@H](NC(=O)N(O)CCCc1ccccc1)C(=O)O [P038, (S)-2-(3-Hydroxy-3-(3-phenylpropyl)ureido)pentanedioic Acid] |  | 2
7 | CC(C)(C)OC(=O)NCCCC[C@H](NC(=O)N[C@@H](CCC(=O)O)C(=O)O)C(=O)O [P039, (10S,14S)-2,2-Dimethyl-4,12-dioxo-3-oxa-5,11,13-triazahexadecane-10,14,16-tricarboxylic Acid] |  | 77
8 | CC(=O)N(CCCCNC(=O)OC(C)(C)C)CC(=O)N[C@@H](CCC(=O)O)C(=O)O [P040, (S)-2-(2-(N-(4-(tert-Butoxycarbonylamino)butyl)acetamido)acetamido)pentanedioic Acid] (Ac-[Nlys](Boc)-Glu-OH) |  | 42
9 | CC(C)(C)OC(=O)NCCCCN(CC(=O)N[C@@H](CCC(=O)O)C(=O)O)C(=O)NO [P042, (S)-2-(2-(1-(4-(tert-Butoxycarbonylamino)butyl)-3-hydroxyureido)acetamido) pentanedioic Acid] |  | 0
10 | O=C(O)CC[C@H](NC(=O)N[C@@H](CCCCNC(=O)Cn1cc(Cn2ccnc2[N+](=O)[O-])nn1)C(=O)O)C(=O)O [P043, (S)-2-(3-((S)-1-Carboxy-5-(2-(4-2((2-nitro-1H-imidazo-1-yl)-methyl)-1H-1,2,3-triazol-1-yl)acetamido)pentyl)ureido)pentanedioic Acid] |  | 77
11 | CN(C(=O)N[C@@H](CCC(=O)O)C(=O)O)[C@@H](CCCCNC(=O)Cn1cc(Cn2ccnc2[N+](=O)[O-])nn1)C(=O)O [P044, (S)-2-(3-((S)-1-Carboxy-5-(2-(4-2((2-nitro-1H-imidazo-1-yl)methyl)-1H-1,2,3-triazol-1-yl)acetamido)pentyl)-3-methylureido)pentanedioic Acid] |  | 62
12 | CC(C)(C)OC(=O)NCCCCN(CC(=O)N[C@@H](CCC(=O)O)C(=O)O)C(N)=O [P047, (S)-2-(2-(1-(4-(tert-Butoxycarbonylamino)butyl)ureido)acetamido)pentanedioic Acid] |  | 0
13 | CC(C)(C)OC(=O)NCCCCN(CC(=O)N[C@@H](CCC(=O)O)C(=O)O)C(=O)NC(N)=O [P048, (S)-2-(2-(1-(4-(tert-Butoxycarbonylamino)butyl)-3-carbamoylureido)acetamido) pentanedioic Acid] |  | 0
14 | CC(C)(C)OC(=O)NCCCCN(CC(=O)O)CC(=O)N[C@@H](CCC(=O)O)C(=O)O [P049, (S)-2-(2-((4-(tert-Butoxycarbonylamino)butyl)(carboxymethyl)amino)acetamido) pentanedioic Acid] |  | 0
15 | CC(C)(C)OC(=O)NCCCCN1CC(=O)N([C@@H](CCC(=O)O)C(=O)O)C(=O)C1 [P050, (S)-2-(4-(4-(tert-Butoxycarbonylamino)butyl)-2,6-dioxopiperazin-1-yl)pentanedioic Acid] |  | 0
16 | CC(C)(C)OC(=O)NCCCCNCC(=O)N[C@@H](CCC(=O)O)C(=O)O [P051, (S)-2-(2-(4-(tert-Butoxycarbonylamino)butylamino)acetamido)pentanedioic Acid] (H-[Nlys](Boc)-Glu-OH) |  | 4

Other lines, results leading:

Row | Ki [nM] | PSMA Blkg % (10 μM) [%] | SMILES
17 | 10.9 | 95 | O=C(O)CC[C@H](NC(=O)N[C@@H](CCCCNC(=O)CCCn1cc(CCCF)nn1)C(=O)O)C(=O)O [P045, (S)-2-(3-((S)-1-Carboxy-5-(4-(4-(3-fluoropropyl)-1H-1,2,3-triazol-1-yl)-butanamido)pentyl)ureido)pentanedioic Acid]
18 | 328 | 80 | CN(C(=O)N[C@@H](CCC(=O)O)C(=O)O)[C@@H](CCCCNC(=O)CCCn1cc(CCCF)nn1)C(=O)O [P046, (S)-2-(3-((S)-1-Carboxy-5-(4-(4-(3-fluoropropyl)-1H-1,2,3-triazol-1-yl)-butanamido)pentyl)-3-methylureido)pentanedioic Acid]
19 |  | 2 | CCS(=O)(=O)N(CCc1ccccc1)CC(=O)NC(CCC(=O)O)C(=O)O (centres unmarked) [P052, 2-(2-(N-Phenethylethylsulfonamido)acetamido)pentanedioic Acid]
20 | 31.3 | 94 | CN(C(=O)N[C@@H](CCC(=O)O)C(=O)O)[C@@H](CCCCNC(=O)c1ccc(-n2cc(CCCF)nn2)cc1)C(=O)O [P053, (S)-2-(3-((S)-1-Carboxy-5-(4-(4-(3-fluoropropyl)-1H-1,2,3-triazol-1-yl)benzamido)pentyl)-3-methylureido)pentanedioic Acid]
21 | 1.6 | 100 | O=C(O)CC[C@H](NC(=O)N[C@@H](CCCCNC(=O)c1ccc(-n2cc(CCCF)nn2)cc1)C(=O)O)C(=O)O [P054]
22 | 344 | 94 | O=C(O)CC[C@@H](C(=O)O)N1C(=O)CC(=O)N([C@@H](CCCCNC(=O)OCc2ccccc2)C(=O)O)C1=O [P055, (S)-2-(3-((S)-5-(Benzyloxycarbonylamino)-1-carboxypentyl)-2,4,6-trioxotetrahydropyrimidin-1(2H)-yl)pentanedioic Acid]
23 |  | 0 | O=C(O)CC[C@H](NC(=O)NNC(=O)OCc1ccccc1)C(=O)O [P056, (S)-2-(2-((Benzyloxy)carbonyl)hydrazinecarboxamido)pentanedioic Acid]
24 |  | 32 | [N-]=[N+]=Nc1ccc(C(=O)NCCCC[C@@H](C(=O)O)N2C(=O)CC(=O)N([C@@H](CCC(=O)O)C(=O)O)C2=O)cc1 [P057, (S)-2-(3-((S)-5-(4-Azidobenzamido)-1-carboxypentyl)-2,4,6-trioxotetrahydropyrimidin-1(2H)-yl)pentanedioic Acid]
25 |  | 100 | [N-]=[N+]=Nc1ccc(C(=O)NCCCC[C@H](NC(=O)N[C@@H](CCC(=O)O)C(=O)O)C(=O)O)cc1 [P058, (S)-2-(3-((S)-5-(4-Azidobenzamido)-1-carboxypentyl)ureido)pentanedioic Acid]
26 | 12.5 | 99 | CN(C(=O)N[C@@H](CCC(=O)O)C(=O)O)[C@@H](CCCCNC(=O)c1ccc(N=[N+]=[N-])cc1)C(=O)O [P059, (S)-2-(3-((S)-5-(4-Azidobenzamido)-1-carboxypentyl)-3-methylureido)pentanedioic Acid]
27 |  | 96 | O=C(O)CCC(NC(=O)N[C@@H](CCC(=O)O)C(=O)O)C(=O)O (some centres unmarked) [P060]
28 |  | 0 | NNC(=O)N[C@@H](CCC(=O)O)C(=O)O [P061, (S)-2-(Hydrazinecarboxamido)pentanedioic Acid]
29 |  | 97 | [N-]=[N+]=NCCCC(=O)Nc1ccc(C[C@H](NC(=O)N[C@@H](CCC(=O)O)C(=O)O)C(=O)O)cc1 [P062, (S)-2-(3-((S)-2-(4-(4-Azidobutaneamido)phenyl)-1-carboxyethyl)-ureido)-pentanedioic Acid]
30 |  | 30 | CN(C(=O)N[C@@H](CCC(=O)O)C(=O)O)[C@@H](Cc1ccc(NC(=O)CCCN=[N+]=[N-])cc1)C(=O)O [P063, (S)-2-(3-((S)-2-(4-(4-Azidobutaneamido)phenyl)-1-carboxyethyl)-3-methylureido)-pentanedioic Acid]
31 |  | 46 | O=C(O)CC[C@@H](C(=O)O)N1C(=O)CC(=O)N([C@@H](CCCCNC(=O)c2ccc(-n3cc(CCCF)nn3)cc2)C(=O)O)C1=O [P064, (S)-2-(3-((S)-1-Carboxy-5-(4-(4-(3-fluoropropyl)-1H-1,2,3-triazol-1-yl)benzamido)pentyl)-2,4,6-trioxotetrahydropyrimidin-1(2H)-yl)pentanedioic Acid]
32 |  | 12 | CC(=O)N(CCCCN1C(=O)c2ccccc2C1=O)NC(=O)N[C@@H](CCC(=O)O)C(=O)O [P066, (S)-2-(2-Acetyl-2-(4-(1,3-dioxoisoindolin-2-yl)butyl)hydrazinecarboxamido)-pentanedioic Acid]
33 |  | 52 | O=C(O)CC[C@H](NC(=O)N[C@@H](Cc1ccc(NC(=O)CCCCCn2cc(CCCF)nn2)cc1)C(=O)O)C(=O)O [P067, (S)-2-(3-((S)-1-Carboxy-2-(4-(6-(4-(3-fluoropropyl)-1H-1,2,3-triazol-1-yl)hexamido)phenyl)ethyl)ureido)pentanedioic Acid]
34 |  | 27 | CN(C(=O)N[C@@H](CCC(=O)O)C(=O)O)[C@@H](Cc1ccc(NC(=O)CCCCCn2cc(CCCF)nn2)cc1)C(=O)O [P068]
